Target: T1, human M2 receptor (Homo sapiens, UniProt P08172)
T1 sequence (P08172 1-466): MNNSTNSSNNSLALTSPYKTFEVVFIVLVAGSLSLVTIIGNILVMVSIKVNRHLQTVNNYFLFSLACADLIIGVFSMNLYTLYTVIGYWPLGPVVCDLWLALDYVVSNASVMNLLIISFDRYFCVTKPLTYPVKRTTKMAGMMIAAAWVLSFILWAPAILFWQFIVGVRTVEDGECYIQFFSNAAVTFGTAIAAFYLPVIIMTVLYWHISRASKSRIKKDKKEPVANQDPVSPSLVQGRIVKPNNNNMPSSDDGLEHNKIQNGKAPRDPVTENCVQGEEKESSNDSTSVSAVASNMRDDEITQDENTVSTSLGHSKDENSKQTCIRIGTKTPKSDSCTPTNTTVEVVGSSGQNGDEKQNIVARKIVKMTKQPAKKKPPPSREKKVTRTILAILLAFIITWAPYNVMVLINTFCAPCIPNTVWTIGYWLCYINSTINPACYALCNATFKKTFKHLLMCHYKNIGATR
Assay: Functional M2-GIRK1/4 activation test: allosteric potency (EC50) and efficiency
Conditions: for EC50: Receptor activity EC50, CHO-DUKX-M2-GIRK cells, acetylcholine at EC20, in some cases mean of two or more determinations; for Emax: read-out: Efficiency, boosting of the acetylcholine effect at EC20 acetylcholine concentration, CHO-DUKX-M2-GIRK cells

SMILES | EC50 | Emax
O=C(NC1CCC1)c1cn(-c2ncc(F)cc2F)c2nc(N3CCNC3=O)ccc2c1=O [Example 146, N-Cyclobutyl-1-(3,5-difluoropyridin-2-yl)-4-oxo-7-(2-oxoimidazolidin-1-yl)-1,4-dihydro-1,8-naphthyridine-3-carboxamide] | 910 nM | 96%
O=C(NC(C1CC1)C(F)(F)F)c1cn(-c2ncc(F)cc2F)c2nc(N3CC4CC4(O)C3)ccc2c1=O (centres unmarked) [Example 36, N-[1-Cyclopropyl-2,2,2-trifluoroethyl]-1-(3,5-difluoropyridin-2-yl)-7-[1-hydroxy-3-azabicyclo[3.1.0]hex-3-yl]-4-oxo-1,4-dihydro-1,8-naphthyridine-3-carboxamide] | 22 nM | 100%
CC(NC(=O)c1cn(-c2ncc(F)cc2F)c2nc(N3C[C@@H](O)[C@H](O)C3)ccc2c1=O)(C(F)(F)F)C(F)(F)F [Example 152, 1-(3,5-Difluoropyridin-2-yl)-7-[(3R,4R)-3,4-dihydroxypyrrolidin-1-yl]-N-(1,1,1,3,3,3-hexafluoro-2-methylpropan-2-yl)-4-oxo-1,4-dihydro-1,8-naphthyridine-3-carboxamide] | 103 nM | 99.5%
O=C(NC(C(F)(F)F)C(F)(F)F)c1cn(-c2ncc(F)cc2F)c2nc(N3CCC[C@@H]3CO)ccc2c1=O [Example 180, 1-(3,5-Difluoropyridin-2-yl)-N-(1,1,1,3,3,3-hexafluoropropan-2-yl)-7-[(2R)-2-(hydroxymethyl)pyrrolidin-1-yl]-4-oxo-1,4-dihydro-1,8-naphthyridine-3-carboxamide] | 89 nM | 100%
O=C(NC(C1CC1)C(F)(F)F)c1cn(-c2ncc(F)cc2F)c2nc(N3C[C@@H](O)[C@H](O)C3)ccc2c1=O (stereo partly drawn) [Example 40, N-[1-Cyclopropyl-2,2,2-trifluoroethyl]-1-(3,5-difluoropyridin-2-yl)-7-[(3R,4R)-3,4-dihydroxypyrrolidin-1-y1]-4-oxo-1,4-dihydro-1,8-naphthyridine-3-carboxamide] | 160 nM | 100%
CC1(NC(=O)c2cn(-c3ncc(F)cc3F)c3nc(N4CCNC4=O)ccc3c2=O)CC(F)(F)C1 [Example 171, N-(3,3-Difluoro-1-methylcyclobutyl)-1-(3,5-difluoropyridin-2-yl)-4-oxo-7-(2-oxoimidazolidin-1-yl)-1,4-dihydro-1,8-naphthyridine-3-carboxamide] | 3100 nM | 90.5%
CC(C)(NC(=O)c1cn(-c2ncc(F)cc2F)c2nc(N3CCCC[C@@H]3CO)ccc2c1=O)C(F)(F)C(F)(F)F [Example 173, 1-(3,5-Difluoropyridin-2-yl)-7-[(2R)-2-(hydroxymethyl)piperidin-1-yl]-4-oxo-N-(3,3,4,4,4-pentafluoro-2-methylbutan-2-yl)-1,4-dihydro-1,8-naphthyridine-3-carboxamide] | 88 nM | 100%
CC(C)(C)[C@@H](NC(=O)c1cn(-c2ncc(F)cc2F)c2nc(N3CCN(CCO)C3=O)ccc2c1=O)C(F)(F)F [Example 126, 1-(3,5-Difluoropyridin-2-yl)-7-[3-(2-hydroxyethyl)-2-oxoimidazolidin-1-yl]-4-oxo-N-[(2R)-1,1,1-trifluoro-3,3-dimethylbutan-2-yl]-1,4-dihydro-1,8-naphthyridine-3-carboxamide] | 87 nM | 98%
CC1(O)CCN(c2ccc3c(=O)c(C(=O)Nc4c(Cl)cccc4Cl)cn(-c4ncc(F)cc4F)c3n2)C1 (racemic) [Example 69, N-(2,6-Dichlorophenyl)-1-(3,5-difluoropyridin-2-yl)-7-[3-hydroxy-3-methylpyrrolidin-1-yl]-4-oxo-1,4-dihydro-1,8-naphthyridine-3-carboxamide] | 365 nM | 92%
O=C(NC(C(F)(F)F)C(F)(F)F)c1cn(-c2ncc(F)cc2F)c2nc(N3C[C@H](O)[C@@H](O)C3)ccc2c1=O [Example 60, 1-(3,5-Difluoropyridin-2-yl)-7-[(3S,4S)-3,4-dihydroxypyrrolidin-1-yl]-N-(1,1,1,3,3,3-hexafluoropropan-2-yl)-4-oxo-1,4-dihydro-1,8-naphthyridine-3-carboxamide] | 275 nM | 100%
O=C(N[C@H](C1CC1)C(F)(F)F)c1cn(-c2ncc(F)cc2F)c2nc(N3CCN(CCO)C3=O)ccc2c1=O [Example 121, N-[(1R)-1-Cyclopropyl-2,2,2-trifluoroethyl]-1-(3,5-difluoropyridin-2-yl)-7-[3-(2-hydroxyethyl)-2-oxoimidazolidin-1-yl]-4-oxo-1,4-dihydro-1,8-naphthyridine-3-carboxamide] | 320 nM | 99%
O=C(NC(C1CC1)C(F)(F)F)c1cn(-c2ncc(F)cc2F)c2nc(N3CC[C@H](O)C3=O)ccc2c1=O (stereo partly drawn) [Example 25, N-[1-Cyclopropyl-2,2,2-trifluoroethyl]-1-(3,5-difluoropyridin-2-yl)-7-[(3S)-3-hydroxy-2-oxopyrrolidin-1-yl]-4-oxo-1,4-dihydro-1,8-naphthyridine-3-carboxamide] | 210 nM | 98%
CC(NC(=O)c1cn(-c2ncc(F)cc2F)c2nc(N3C[C@@H](O)[C@H](O)C3)ccc2c1=O)C(F)(F)C(F)(F)F (mixture of isomers) [Example 88, 1-(3,5-Difluoropyridin-2-yl)-7-[(3R,4R)-3,4-dihydroxypyrrolidin-1-yl]-4-oxo-N-[3,3,4,4,4-pentafluorobutan-2-yl]-1,4-dihydro-1,8-naphthyridine-3-carboxamide] | 59 nM | 99.5%

Other lines, results leading:

EC50 | Emax | SMILES
560 nM | 87% | CC[C@H](NC(=O)c1cn(-c2c(F)cncc2F)c2nc(N3C[C@@H](O)CC3=O)ccc2c1=O)C(F)(F)F [Example 24, 1-(3,5-Difluoropyridin-4-yl)-7-[(4S)-4-hydroxy-2-oxopyrrolidin-1-yl]-4-oxo-N-[(2S)-1,1,1-trifluorobutan-2-yl]-1,4-dihydro-1,8-naphthyridine-3-carboxamide]
240 nM | 97.8% | C[C@H](NC(=O)c1cn(-c2ncc(F)cc2F)c2nc(N3C[C@@H](O)CC3=O)ccc2c1=O)C(F)(F)F [Example 3, 1-(3,5-Difluoropyridin-2-yl)-7-[(4S)-4-hydroxy-2-oxopyrrolidin-1-yl]-4-oxo-N-[(2S)-1,1,1-trifluoropropan-2-yl]-1,4-dihydro-1,8-naphthyridine-3-carboxamide]
25 nM | 95.5% | O=C(NC(c1cccc(F)c1)C(F)(F)F)c1cn(-c2ncc(F)cc2F)c2nc(N3C[C@@H](O)CC3=O)ccc2c1=O (stereo partly drawn) [Example 10, 1-(3,5-Difluoropyridin-2-yl)-7-[(4S)-4-hydroxy-2-oxopyrrolidin-1-yl]-4-oxo-N-[2,2,2-trifluoro-1-(3-fluorophenyl)ethyl]-1,4-dihydro-1,8-naphthyridine-3-carboxamide]
260 nM | 100% | CC(NC(=O)c1cn(-c2ncc(F)cc2F)c2nc(N3C[C@@H](O)CC3=O)ccc2c1=O)C(F)(F)C(F)(F)F (single isomer, unassigned) [Example 77]
19 nM | 100% | CC(C)C[C@H](NC(=O)c1cn(-c2ncc(F)cc2F)c2nc(N3C[C@@H](O)CC3=O)ccc2c1=O)C(F)(F)F [Example 75, 1-(3,5-Difluoropyridin-2-yl)-7-[(4S)-4-hydroxy-2-oxopyrrolidin-1-yl]-4-oxo-N-[(2S)-1,1,1-trifluoro-4-methylpentan-2-yl]-1,4-dihydro-1,8-naphthyridine-3-carboxamide]
65 nM | 100% | CC[C@@H](NC(=O)c1cn(-c2ncc(F)cc2F)c2nc(N3CC4CC4(O)C3)ccc2c1=O)C(F)(F)F (mixture of isomers) [Example 43, 1-(3,5-Difluoropyridin-2-yl)-7-[1-hydroxy-3-azabicyclo[3.1.0]hex-3-yl]-4-oxo-N-[(2R)-1,1,1-trifluorobutan-2-yl]-1,4-dihydro-1,8-naphthyridine-3-carboxamide]
15 nM | 100% | CC(C)C[C@@H](NC(=O)c1cn(-c2ncc(F)cc2F)c2nc(N3C[C@@H](O)[C@H](O)C3)ccc2c1=O)C(F)(F)F [Example 81, 1-(3,5-Difluoropyridin-2-yl)-7-[(3R,4R)-3,4-dihydroxypyrrolidin-1-yl]-4-oxo-N-[(2R)-1,1,1-trifluoro-4-methylpentan-2-yl]-1,4-dihydro-1,8-naphthyridine-3-carboxamide]
17 nM | 100% | CCC(NC(=O)c1cn(-c2ncc(F)cc2F)c2nc(N3C[C@@H](O)CC3=O)ccc2c1=O)C(F)(F)C(F)(F)F (mixture of isomers) [Example 92, 1-(3,5-Difluoropyridin-2-yl)-7-[(4S)-4-hydroxy-2-oxopyrrolidin-1-yl]-4-oxo-N-[1,1,1,2,2-pentafluoropentan-3-yl]-1,4-dihydro-1,8-naphthyridine-3-carboxamide]
250 nM | 98.5% | CC1C(=O)N(c2ccc3c(=O)c(C(=O)N[C@@H](C4CC4)C(F)(F)F)cn(-c4ncc(F)cc4F)c3n2)CC1O (mixture of isomers) [Example 104, N-[(1S)-1-Cyclopropyl-2,2,2-trifluoroethyl]-1-(3,5-difluoropyridin-2-yl)-7-[4-hydroxy-3-methyl-2-oxopyrrolidin-1-yl]-4-oxo-1,4-dihydro-1,8-naphthyridine-3-carboxamide]
